From US20190030018A1 (Celgene Corporation, priority 2017, published 2019)
Like-named read-outs stand apart in the source and are kept apart here.

Experiments:
HNT-34 = assay: In vitro combination studies, CellTitre-Glo cell viability; conditions: HNT-34; in combination with Compound 1
OCI-AML-2 = assay: as above; conditions: OCI-AML-2; in combination with Compound 1
MOLM-13 = assay: as above; conditions: MOLM-13; in combination with Compound 1
[1] = tested on: IL3 independent JAK2 V617F BaF3 cells; assay: Combination studies with JAK2 inhibitors in engineered BaF3 cells, CellTitre-Glo after 3 days; assay type: cell-based; conditions: compared to the IL3 dependent lines
Protocol: Everolimus was included as a control. The cell viability was then measured by CellTitre-Glo® after 3 days.

[2] = tested on: GSPT1 and mTORC1 effectors in BON cells; assay: Western blot of BON cell lysates after 120 h treatment; assay type: cell-based
Protocol: BON cells were cultured in DMEM: F12K media containing 10% fetal bovine serum and penicillin/streptomycin antibiotics. […] Cells were harvested and probed with antibodies for western blots and imaged using a Li-Cor Odyssey imaging system. All total and phosphorylated antibodies were obtained from Cell Signaling Technology.

HL-60 = assay: In vitro combination studies, CellTitre-Glo cell viability; conditions: HL-60; in combination with Compound 1
[3] = tested on: stomach cancer cell line GA0087; assay: GA0087 PDX model ex vivo 3D methylcellulose CellTiter-Glo cell viability assay (IC50, matrix combination, Combination Index)
Protocol: (§4) Materials and Methods: The stomach cancer cell line GA0087 was used in this study. […] Culture media was purchased from GIBCO or Sigma, USA.
(§5) Everolimus was obtained from Selleck. Cisplatin was used as a reference drug, and was obtained from Hospira Australia pty Ltd.
(§6) PDX tumor models were maintained at Crownbio HuPrime animal facility. Tumor growth was monitored weekly. Tumor volumes were measured in two dimensions using a caliper, and the volume was expressed in mm^3 using the formula: V=0.5 a×b^2 where a and b are the long and short diameters of the tumor, respectively. • 2. Mouse xenografts at tumor volume around 800 mm^3 were housed with sterile surgical tools and tumor tissue was minced into tiny pieces with scissors in small amount of PBS on a new tissue culture plate. • 3. The cell suspension was filtered through Falcon cell strainer. The nylon mesh was washed 3-5 times with PBS. • 4. The cell suspension was centrifuged at 1000 rpm for 5 minutes and the pellet was washed with PBS and centrifuged again. • 5. Red blood cells were removed using red blood cell lysis buffer. • 6. The cell suspension was centrifuged at 1000 rpm for 5 minutes and the pellet was washed with PBS and centrifuged again. • 7. The cell pallet was re-suspended with appropriate cell culture media for different cells. • 8. Cells were counted with Countstar by trypan blue exclusion.
(§7) Day −1: Cell Plating • 1. The cells were harvested during the logarithmic growth period. The harvested cells were cultured with appropriate cell media and centrifuged at 1000 rpm for 3 minutes. […] (Cell concentration was adjusted according to the data base or density optimization assay). • 3. 3.5 mL of cell suspension was mixed with 6.5 mL of 1% methylcellulose. […] 90 μL cell suspensions were added to 96-well plates according to plate map with final cell density. Two duplicate plates were set up: one for day 0 reading (T0) and the other was cultured in incubator for reading at the end point.
(§8) Day 0: T0 Plate Reading and Compound Treatment • 5.10 μL culture medium was added to T0 plate in each well for T0 reading. • 6.100 μl CellTiter-Glo® Reagent was added to each well. • 7. The contents were mixed for 2 minutes on an orbital shaker to facilitate cell lysis. • 8. The plates were allowed to incubate at room temperature for 10 minutes to stabilize luminescent signal. • 9. A backseal black sticker was placed to the bottom of each plate. • 10. The luminescence was read using EnVision Multi Label Reader. • 11.
(§9) The solutions were stored at −20° C. […] The response score was calculated by normalizing to DMSO control. The combination index (CI) was calculated using Chou and Talalay method, wherein a CI of less than 1 indicates synergy. Cisplatin was used as control in the single compound dose response, but was not included in the combination test.
(§10) After drug incubation, pictures for representative wells were taken using a phase contrast microscope. • 13. 100 μL CellTiter-Glo® Reagent was added to each well. • 14. Contents were mixed for 2 minutes on an orbital shaker to facilitate cell lysis. • 15. The plates were allowed to incubate at room temperature for 10 minutes to stabilize luminescent signal. • 16. Backseal black sticker was placed to the bottom of each plate. • 17. Luminescence was recorded using EnVision Multi Label Reader.
(§11) In order to calculate IC50, a dose-response curve was fitted using nonlinear regression model with a sigmoidal dose response. The formula of surviving rate is shown below, and the IC50 was automatically produced by GraphPad Prism 5.0.
(§12) The surviving rate (%)=(LumTest article−LumMedium control)/(LumNone treated−LumMedium control)×100%.

[4] = as above; conditions: read-out: Absolute IC50
Protocol: as §4, §5, §6, §7, §8, §9, §10, §11, §12

NOMO-1 = assay: In vitro combination studies, CellTitre-Glo cell viability; conditions: NOMO-1; in combination with Compound 1
KG-1 = assay: as above; conditions: KG-1; in combination with Compound 1
MV-4-11 = assay: as above; conditions: MV-4-11; in combination with Compound 1
F-36-P = assay: as above; conditions: F-36-P; in combination with Compound 1
OCT-AML-3 = assay: as above; conditions: OCI-AML-3; in combination with Compound 1
[5] = tested on: GSPT1 expression, mTOR activation, Mcl-1 expression and Caspase-3 cleavage in AML cells; assay: Immunoblot analysis of AML cells treated with Compound 1 and everolimus; assay type: cell-based
Source text: Whole cell extracts were collected and subjected to immunoblot analysis.

[6] = tested on: human QGP1 pancreatic somatostatinoma xenografts
Protocol: Treatment began on Day 1 in nine groups of mice (n=10) with established subcutaneous QGP1 tumors. […] Tumors were measured using calipers twice each week to the end of the study on Day 52. Three tumors at or near the group median tumor volume 2000 mm^3 endpoint were sampled from each group.
Treatment efficacy was based on tumor growth inhibition (TGI), defined as the difference between the final (Day 52) median tumor volumes (MTVs) of treated and control mice. The results were analyzed utilizing the Mann-Whitney U-test, and were deemed statistically significant at P≤0.05. Drug tolerability was assessed by body weight measurements and by frequent observation of treated animals.

[7] = tested on: primary human tumor xenograft model GA0087; assay: HuPrime gastric cancer xenograft GA0087 model, in vivo efficacy; design: species or system female BALB/c nude mice; conditions: single agent, 1.25 mg/kg and 5 mg/kg
Source text: Tumor fragments from stock mice were harvested and used for inoculation into mice. Each mouse was inoculated subcutaneously at the right flank with primary human tumor xenograft model GA0087 tumor fragment (P7, 2-3 mm in diameter) for tumor development. […] After tumor inoculation, the animals were checked daily for morbidity and mortality. At the time of routine monitoring, the animals were checked for any effects of tumor growth and treatments on normal behavior such as mobility, food and water consumption, body weight gain/loss, eye/hair matting and any other abnormal effect. Death of euthanized mouse was recorded. All groups were terminated on Day 40. Three tumors in each group, with tumor volume near median of each group were collected. Plasma of the same mice were collected. For comparison among three or more groups, one-way ANOVA was performed followed by multiple comparison procedures. All data were analyzed using SPSS 18.0. P values <0.05 is considered to be statistically significant.

ML-2 = assay: In vitro combination studies, CellTitre-Glo cell viability; conditions: ML-2; in combination with Compound 1
[8] = Dynamic vapor sorption (DVS) of solid forms; assay type: physicochemical; conditions: relative humidity increased from about 0% to about 90% RH
Protocol: In certain embodiments, Form A is characterized by dynamic vapor sorption analysis. […] In certain embodiments, Form A comprises less than 0.1% water as determined in a coulometric Karl Fischer (KF) titrator equipped with an oven sample processor set at 225° C.
In certain embodiments, Form B is characterized by dynamic vapor sorption analysis. […] In certain embodiments, Form B comprises less than 0.1% water as determined in a coulometric Karl Fischer (KF) titrator equipped with an oven sample processor set at 225° C.
In certain embodiments, Form C is characterized by dynamic vapor sorption analysis. […] In certain embodiments, Form C comprises less than 0.1% water as determined in a coulometric Karl Fischer (KF) titrator equipped with an oven sample processor set at 225° C.

physchem = assay type: physicochemical
Source text: “Compound 1, Form C” or “Form C” or “API”” in the Examples herein refers to polymorph Form C of 2-(4-chlorophenyl)-N-((2-(2,6-dioxopiperidin-3-yl)-1-oxoisoindolin-5-yl)methyl)-2,2-difluoroacetamide. “Compound 1, Form A” or “Form A” in the Examples herein refers to polymorph Form A of 2-(4-chlorophenyl)-N-((2-(2,6-dioxopiperidin-3-yl)-1-oxoisoindolin-5-yl)methyl)-2,2-difluoroacetamide.

[9] = tested on: IDH2 mutant cell line TF1-R140Q; assay: Hemoglobinization / EPO induced differentiation assay with flow cytometry; assay type: cell-based; conditions: EPO induction 7 days
Protocol: (§1) Cells were plated at a density of 0.2e^6 cells/ml of 2 ml culture in 6 well plates.
FIG. 91 provides the dosing schedules used in this study.
(§2) TF1 cells were cultured in the following media: RPMI containing HEPES and L-glutamine, 10% FBS, Pen/Strep, G418 (final conc 500 μg/ml), and GM-CSF (final conc 5 ng/ml). The cells were cultured for 7 days, with or without compound treatment as described in FIG. 91.
(§3) For the hemoglobinization assay, TF1 cells were washed three times with PBS to remove residual GM-CSF then plated at (100,000 cells/ml). Cells were then induced to differentiate using EPO (2 unit/ml). Induction continued for 7 days with changing media on 4th day and adding media with fresh EPO. The cell pellets were collected and imaged for hemoglobinization content (as a surrogate for differentiation into blood lineage). Cells were pelleted, washed, stained with a panel of antibodies and analyzed by flow cytometry, using the following antibodies: […]

[10] = tested on: IDH2 mutant cell line TF1-R140Q; assay: Proliferation (total, HSC and progenitor cell count) in the TF1 assay; assay type: cell-based
Protocol: as §1, §2, §3

[11] = patients, literature value; read-out: clinical Cmax; cited from earlier work
AML cell lines = assay: In vitro combination studies, CellTitre-Glo cell viability (Bliss, Loewe, HSA, CES synergy analysis); conditions: FLT3 and JAK inhibitors in combination with Compound 1 in MOLM-13 and NOMO-1 cell lines
Protocol: where EA and EB represent the effect of each single agent and EAB represents the effect of the combination at a given dose.
All data was analyzed using the CES equation:
In cases where single agent dose response fit a Hill slope, the CES analysis was compared to Loewe, Bliss, and HSA models.

[12] = tested on: JAK2V617F AML cell lines HEL, SET-2, MUTZ-8; assay: Combination studies with JAK2 inhibitors in AML cell lines, CellTitre-Glo after 3 days; assay type: cell-based
Protocol: The cell viability was measured by CellTitre-Glo® after 3 days as described elsewhere herein.

## CO[C@H]1C[C@@H]2CC[C@@H](C)[C@@](O)(O2)C(=O)C(=O)N2CCCC[C@H]2C(=O)O[C@H]([C@H](C)C[C@@H]2CC[C@@H](OCCO)[C@H](OC)C2)CC(=O)[C@H](C)/C=C(\C)[C@@H](O)[C@@H](OC)C(=O)[C@H](C)C[C@H](C)/C=C/C=C/C=C/1C [everolimus, reference compound]
HNT-34
  Synergy analysis for combinations with Compound 1: No
OCI-AML-2
  Synergy analysis for combinations with Compound 1: Yes
MOLM-13
  Synergy analysis for combinations with Compound 1: Yes
[1]
  single agent sensitivity: more sensitive
[2]
  effect on mTORC1 effectors (p4EBP1, phosphorylation of S6): dramatically decreased phosphorylation of S6 and phosphorylation of 4EBP1
HL-60
  Synergy analysis for combinations with Compound 1: No
[3]; GA0087-1st experiment
  Maximal Inhibition: 73.15%
[3]; GA0087-2nd experiment
  Maximal Inhibition: 72.80%
[4]; GA0087-1st experiment
  IC50: 6.1 nM
[4]; GA0087-2nd experiment
  IC50: 7.5 nM
NOMO-1
  Synergy analysis for combinations with Compound 1: No
KG-1
  Synergy analysis for combinations with Compound 1: No
MV-4-11
  Synergy analysis for combinations with Compound 1: Yes
F-36-P
  Synergy analysis for combinations with Compound 1: Yes
OCT-AML-3
  Synergy analysis for combinations with Compound 1: Yes
[5]
  GSPT1 expression/degradation, Mcl-1 loss, Caspase-3 cleavage: minimal effect
  activation of the mTOR pathway (phosphorylation of S6K1 and 4E-BP1): significantly blocked the activation of the mTOR pathway
[6]; 3 mg/kg i.p. qd x 21, Day 52
  tumor growth inhibition: 41%
[6]; 10 mg/kg i.p. qd x 21, Day 52
  tumor growth inhibition: 39%
[7]
  anti-tumor activity: moderate anti-tumor activity
ML-2
  Synergy analysis for combinations with Compound 1: Yes

## O=C1CCC(N2Cc3cc(CNC(=O)C(F)(F)c4ccc(Cl)cc4)ccc3C2=O)C(=O)N1 (stereo not drawn) [Form C, 2-(4-chlorophenyl)-N-((2-(2,6-dioxopiperidin-3-yl)-1-oxoisoindolin-5-yl)methyl)-2,2-difluoroacetamide]
[8]
  water uptake (DVS): about 0.6 % w/w
physchem
  thermodynamic stability among the crystal forms: most thermodynamically stable anhydrate

## CC(C)(O)CNc1nc(Nc2ccnc(C(F)(F)F)c2)nc(-c2cccc(C(F)(F)F)n2)n1 [enasidenib, reference compound]
[9]
  hemoglobin expression: increase in hemoglobin expression
[10]
  proliferation (total, HSC and progenitor cell count): mild growth promoting effect

## O=C1CCC(N2Cc3cc(CNC(=O)C(F)(F)c4ccc(Cl)cc4)ccc3C2=O)C(=O)N1 (stereo not drawn) [Form B, 2-(4-chlorophenyl)-N-((2-(2,6-dioxopiperidin-3-yl)-1-oxoisoindolin-5-yl)methyl)-2,2-difluoroacetamide]
[8]
  water uptake (DVS): about 1.4 % w/w

## O=C1CCC(N2Cc3cc(CNC(=O)C(F)(F)c4ccc(Cl)cc4)ccc3C2=O)C(=O)N1 (stereo not drawn) [Form A, 2-(4-chlorophenyl)-N-((2-(2,6-dioxopiperidin-3-yl)-1-oxoisoindolin-5-yl)methyl)-2,2-difluoroacetamide]
[8]
  water uptake (DVS): about 1.2 % w/w

## N#CC[C@H](C1CCCC1)n1cc(-c2ncnc3[nH]ccc23)cn1 [ruxolitinib]
[11]
  Cmax: 500 to 1000 nM

## C[C@H](Nc1cc(-c2cnn(C)c2)cc(Nc2cnccn2)n1)c1ccc(F)cc1 [NS-018]
[1]
  single agent sensitivity: more sensitive
[11]
  Cmax: 2570 nM
AML cell lines
  Synergy: Yes
[12]
  cell viability, single agent: inhibit cell viability

## Nc1nc(Nc2ccnc(C(F)(F)F)c2)nc(-c2cccc(C(F)(F)F)n2)n1 [Compound 2, 6-(6-(trifluoromethyl)pyridin-2-yl)-N^2-(2-(trifluoromethyl)pyridin-4-yl)-1,3,5-triazine-2,4-diamine]
[9]
  hemoglobin expression: increase in hemoglobin expression
